Test results as given in patent publication US6716613B1, “Metalloprotease having aggrecanase activity” (Yamanouchi Pharmaceutical Co., Ltd., priority 1999, dated 2004).

What was measured:
[1] = tested on: MDTS6 mRNA; assay: Induction of MDTS6 mRNA expression in rabbit knee joint cartilage primary culture cells (RT-PCR); format: cell-based; settings: 10 ng/ml of IL-1β or 10 μM of all-trans retinoic acid; 2 and 6 hours
Protocol: After 3 days of culturing of the rabbit knee joint cartilage primary culture cells of 6 well plate described in Example 11-1 by changing the medium to ascorbic acid medium, 10 ng/ml of IL-1β or 10 μM of all-trans retinoic acid was added thereto, and total RNA samples 2 and 6 hours thereafter were prepared using ISOGEN (mfd. by Nippon Gene) in accordance with the attached instructions. Each of the samples was treated with DNase I (mfd. by Nippon Gene), subjected to phenol/chloroform treatment and then recovered by ethanol precipitation, and the thus purified total RNA was dissolved in DEPC-treated sterile water. Using random hexamers as primers, 1 μg of this total RNA was subjected to reverse transcription reaction and RNase H treatment using Thermoscript™ RT-PCR System (mfd. by GIBCO-BRL, catalog number 11146-016) in accordance with the attached instructions, and the product was diluted 10 times with sterile water and used as a cDNA sample. Using 5 μl of each of the thus obtained cDNA samples as the template and the oligoDNA sequences represented by SEQ ID NO:18 and SEQ ID NO:19 as primers, PCR was carried out under a condition of 94° C. for 2 minutes, 45 repetitions of a cycle of 94° C. for 30 seconds, 65° C. for 30 seconds and 72° C. for 30 seconds, and subsequent 72° C. for 10 minutes. […]

[2] = tested on: rabbit knee joint cartilage primary culture cells; assay: Proteoglycan degradation/release in rabbit knee joint cartilage primary culture cells (35S label); format: cell-based; settings: stimulation with 0.01 to 10 ng/ml IL-1β or 0.1 to 10 μM all-trans retinoic acid; 0, 24, 48 hours of culturing
Protocol: After killing a rabbit (Japanese white species, male, 1.0 to 1.5 kg) under excess anesthesia, a knee joint was excised and the cartilage layer on the joint surface was removed and finely cut using a surgical knife. The cut pieces were treated with trypsin-EDTA (0.25%-1 mM; mfd. by GIBCO-BRL) at 37° C. for 1 hour and then centrifuged at 1,500 rpm for 5 minutes, and the resulting precipitate was washed with DMEM. This was treated with collagenase A (0.15%; Boehringer-Mannheim)/DMEM at 37° C. for 3 to 4 hours, and then a nylon mesh filter (100 μm, mfd. by Falcon)-passed fraction was centrifuged at 1,500 rpm for 5 minutes to effect precipitation of cartilage cells. The cells were thoroughly washed with DMEM/10% FBS medium, suspended in DMEM/10% FBS medium to a density of 2×10^5 cells/ml and then inoculated in 200 μl/well portions into an I type collagen-coated 96 well plate (mfd. by Asahi Technoglass). Three days thereafter, the medium was changed to 200 μof DMEM/10% FBS medium containing 50 μg/ml of ascorbic acid (ascorbic acid medium hereinafter), and the culturing was continued for 3 days. When an I type collagen-coated 6 well plate (Asahi Technoglass) was used, the cell suspension was inoculated in 6 ml/well portions and cultured by carrying out the same medium exchange. These cells were used in the following test.
The rabbit knee joint cartilage primary culture cells of 96 well plate described in Example 11-1 were cultured for 2 days using 200 μl of the ascorbic acid medium supplemented with 10 μCi/ml in final concentration of Na2^35SO4 and labeled therewith, washed 3 times with 200 μl of the ascorbic acid medium and then cultured for 1 day using 200 μl of the ascorbic acid medium. After stimulation with IL-1β or all-trans retinoic acid and subsequent 0, 24, and 48 hours of culturing, the culture supernatants were recovered in 20 μl portions, and the radioactivity was measured using Top Count (mfd. by Packard).
Each of the compounds A, B, C and D selected by the screening system of Example 10-2 was added to the proteoglycan degradation system of rabbit knee joint cartilage primary culture cells just before the stimulation with 10 μM of all-trans retinoic acid, and their proteoglycan degradation inhibitory activities were examined.

[3] = tested on: MDTS6 mRNA; assay: Expression induction of MDTS6 mRNA in ATDC5 cells (RT-PCR); format: cell-based, mouse; settings: insulin-differentiated, IL-1β 5 ng/ml for 0, 1, 2, 4 or 8 hours
Protocol: It is known that a mouse cell strain ATDC5 is differentiated into a chondrocyte-like cell by insulin treatment (Atsumi T. et al., Cell Differ. Dev., 30, 109-116, 1990). The ATDC5 cells were inoculated in 4×10^5/well portions into an I type collagen-coated 6 well plate (mfd. by Asahi Technoglass) and cultured for 2 days using DMEM/HamF12 (1:1)/5% FCS medium, the medium was changed to DMEM/HamF12 (1:1)/5% FCS medium containing insulin (final concentration 30 ng/ml) and 50 μg/ml of L-ascorbic acid and the culturing was continued for 5 days, and then the resulting cells were treated for 0, 1, 2, 4 or 8 hours by adding IL-1β (final concentration 5 ng/ml). Total RNA was prepared from each of the treated groups using ISOGEN (mfd. by Nippon Gene), and RT-PCR was carried out using 1 μg portion thereof as the template and using BcaBEST™ RNA PCR Kit (mfd. by Takara Shuzo). The reverse transcription reaction was carried out using Oligo dT-Adaptor Primer as the primer in accordance with the attached instructions, and PCR was carried out using oligoDNA sequences represented by SEQ ID NO:15 and SEQ ID NO:16 as primers, which had been synthesized based on the 3′ non-translation region of MDTS6, by the reaction of 94° C. for 2 minutes, 40 repetitions of a cycle of 94° C. for 30 seconds, 60° C. for 30 seconds and 72° C. for 30 seconds, and subsequent 72° C. for 7 minutes. […]

[4] = tested on: recombinant aggrecan G1G2; assay: Recombinant aggrecan G1G2 degradation by expressed MDTS6 proteins (western blotting); format: biochemical, human; settings: method of Example 7-3, anti-aggrecanase neoepitope antibody
Protocol: In Example 6, the medium 12 to 16 hours after introduction of the expression plasmid was replaced by a serum-free medium, and the culturing was continued for 32 to 36 hours to recover the culture supernatant. This culture supernatant was mixed with the recombinant aggrecan prepared in the foregoing, and the mixture was allowed to undergo the reaction at 37° C. overnight, subjected to SDS-PAGE, transferred on a PVDF membrane and blocked by the method described in Example 6 and then allowed to react with an anti-Hisx6 polyclonal antibody (sc-803; mfd. by Santa Cruz Biotechnology) and a horseradish peroxidase-labeled goat anti-rabbit IgG polyclonal antibody (mfd. by BML) in that order. After the reaction, the recombinant aggrecan was detected using an ECL western blotting system (mfd. by Amersham Pharmacia). As a result, degraded fragment of the recombinant aggrecan, which was not found in the control in which only the […] was introduced, was detected (FIG. 2).
Aggrecanase is a metalloprotease which selectively cleaves aggrecan at the site between Glu^373 -Ala^374. An antibody capable of recognizing a C-side neoepitope generated by this cleavage was prepared in accordance with a usual method by repeating immunization of mouse with a conjugate of the synthetic peptide represented by SEQ ID NO:32 and KLH, 5 times. A PVDF membrane after transfer and blocking carried out in the same manner as in Example 7-2 was allowed to react with this antibody, allowed to react with a peroxidase-labeled goat anti-mouse IgG polyclonal antibody (mfd. by Tago) and then detected using an ECL western blotting detection system (mfd. by Amersham Pharmacia). As a result, the degraded product of recombinant aggrecan generated by MDTS6 reacted with the anti-aggrecanase neoepitope antibody, and molecular weight of the detected band is consistent with the molecular weight of the degraded product detected in Example 7-2 (FIG. 3). The same result was obtained by the BC-3 antibody which recognizes aggrecanase neoepitope (Hughes C. E. et al., Biochemical J., 305, 799-804, 1995). […]

| Molecule | expression of the MDTS6 mRNA [1] | release of proteoglycan (increase in radioactivity of culture supernatant) [2] | expression of the MDTS6 mRNA [3] | aggrecanase activity in culture supernatant [4] |
| --- | --- | --- | --- | --- |
| CC1=C(/C=C/C(C)=C/C=C/C(C)=C/C(=O)O)C(C)(C)CCC1 [all-trans retinoic acid, reference compound] | induced | concentration-dependent and strong radioactivity, namely release of proteoglycan, was observed | – | – |
| IL-1β: cytokine used to stimulate proteoglycan release and MDTS6 mRNA expression | induced | increase in the radioactivity, namely release of proteoglycan, was observed | transiently induced | – |
| MDTS6Cys: protein of amino acids 1st to 687th position of SEQ ID NO:1 with the polypeptide of SEQ ID NO:33 added to the C-terminus (protein) FVSIPRYVETLVVADESMVKFHGADLEHYLLTLLATAARLYRHPSILNPINIVVVKVLLLRDRDSGPKVTGNAALTLRNFCAWQKKLNKVSDKHPEYWDTAILFTRQDLCGATTCDTLGMADVGTMCDPKRSCSVIEDDGLPSAFTTAHELGHVFNMPHDNVKVCEEVFGKLRANHMMSPTLIQIDRANPWSACSAAIITDFLDSGHGDCLLDQPSKPISLPEDLPGASYTLSQQCELAFGVGSKPCPYMQYCTKLWCTGKAKGQMVCQTRHFPWADGTSCGEGKLCLKGACVERHNLNKHRVDGSWAKWDPYGPCSRTCGGGVQLARRQCTNPTPANGGKYCEGVRVKYRSCNLEPCPSSASGKSFREEQCEAFNGYNHSTNRLTLAVAWVPKYSGVSPRDKCKLICRANGTGYFYVLAPKVVDGTLCSPDSTSVCVQGKCIKAGCDGNLGSKKRFDKCGVCGGDNKSCKKVTGGSAAADYKDDDDK | – | – | – | detected |
| MDTS6Pro: protein of amino acids 1st to 447th position of SEQ ID NO:1 with the polypeptide of SEQ ID NO:33 added to the C-terminus (protein) FVSIPRYVETLVVADESMVKFHGADLEHYLLTLLATAARLYRHPSILNPINIVVVKVLLLRDRDSGPKVTGNAALTLRNFCAWQKKLNKVSDKHPEYWDTAILFTRQDLCGATTCDTLGMADVGTMCDPKRSCSVIEDDGLPSAFTTAHELGHVFNMPHDNVKVCEEVFGKLRANHMMSPTLIQIDRANPWSACSAAIITDFLDSGHGDCLLDQPSKPISLPEDLPGASYTLSQQGSAAADYKDDDDK | – | – | – | not detected |
| MDTS6Dis: protein of amino acids 1st to 518th position of SEQ ID NO:1 with the polypeptide of SEQ ID NO:33 added to the C-terminus (protein) FVSIPRYVETLVVADESMVKFHGADLEHYLLTLLATAARLYRHPSILNPINIVVVKVLLLRDRDSGPKVTGNAALTLRNFCAWQKKLNKVSDKHPEYWDTAILFTRQDLCGATTCDTLGMADVGTMCDPKRSCSVIEDDGLPSAFTTAHELGHVFNMPHDNVKVCEEVFGKLRANHMMSPTLIQIDRANPWSACSAAIITDFLDSGHGDCLLDQPSKPISLPEDLPGASYTLSQQCELAFGVGSKPCPYMQYCTKLWCTGKAKGQMVCQTRHFPWADGTSCGEGKLCLKGACVERHNLNKHRVDGSGSAAADYKDDDDK | – | – | – | not detected |
